This is an account of results in PubChem BioAssay AID180 (DTP/NCI, 2004).

Molecules are shown by their SMILES. Where “and” joins values, the source holds several entries; their conditions need not be identical. Equal entries are not always repeated.

For the assay, the system named is BDF1 mice, Adenocarcinoma 755 s.c., tumor weight T/C. Nature of the assay: NCI In Vivo Anticancer Drug Screen. Data for tumor model Adenocarcinoma 755 (subcutaneous) in B6D2F1 (BDF1) mice. The settings on record: endpoint: mean tumor weight, higher = larger tumour. A digest of the protocol: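 Compound activity was tested in mice carrying transplanted tumors. Survival or tumor size was measured, and each value is the treated-group measurement divided by that of the vehicle-treated control group (T/C).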

The mark [1] stands for this setting: dose: 15.0 mg/kg/injection, schedule: Q01DX011 (ip), vehicle: methylcellulose (MC).
Setting [2] is: dose: 37.5 mg/kg/injection, schedule: Q01DX011 (ip), vehicle: carboxymethylcellulose (CMC).
[3] abbreviates: dose: 150.0 mg/kg/injection, schedule: Q01DX011 (ip), vehicle: carboxymethylcellulose (CMC).
[4] abbreviates: dose: 300.0 mg/kg/injection, schedule: Q01DX011 (ip), vehicle: carboxymethylcellulose (CMC).
Setting [5] is: dose: 25.0 mg/kg/injection, schedule: Q01DX011 (sc), vehicle: steriod suspending solution.
Where [6] appears, read: dose: 30.0 mg/kg/injection, schedule: Q01DX011 (ip), vehicle: carboxymethylcellulose (CMC).
Where [7] appears, read: dose: 60.0 mg/kg/injection, schedule: Q01DX011 (ip), vehicle: carboxymethylcellulose (CMC).
[8] abbreviates: dose: 120.0 mg/kg/injection, schedule: Q01DX011 (ip), vehicle: carboxymethylcellulose (CMC).

Broadly, the T/C is the result in the treated group divided by that in the control group, in per cent. In the case of `CS(=O)(=O)OCCC(=O)NCCCCNC(=O)CCOS(C)(=O)=O`, the T/C by setting is: (dose: 56.0 mg/kg/injection, schedule: Q01DX011 (ip), vehicle: carboxymethylcellulose (CMC)) 66 % of control; (dose: 56.0 mg/kg/injection, schedule: Q01DX011 (ip), vehicle: methylcellulose (MC)) 85 % of control; (dose: 113.0 mg/kg/injection, schedule: Q01DX011 (ip), vehicle: carboxymethylcellulose (CMC)) 48 % of control; (dose: 113.0 mg/kg/injection, schedule: Q01DX011 (ip), vehicle: methylcellulose (MC)) 31 % of control; (dose: 225.0 mg/kg/injection, schedule: Q01DX011 (ip), vehicle: carboxymethylcellulose (CMC)) 12 % of control; (dose: 225.0 mg/kg/injection, schedule: Q01DX011 (ip), vehicle: methylcellulose (MC)) 8 % of control. The T/C (dose: 450.0 mg/kg/injection, schedule: Q01DX011 (ip), vehicle: carboxymethylcellulose (CMC)) is 7 % of control.

Consider `CN(C)c1ccc(/C=C/C2=[N+](C)c3ccccc3C2(C)C)cc1`, for which the T/C (dose: 2.0 mg/kg/injection, schedule: Q01DX011 (ip), vehicle: other) is 81 % of control.

For the molecule `Nc1nc(=S)cc(Nc2cccc(Cl)c2)[nH]1`, the T/C reads like this: under setting [1], 91 % of control; (dose: 62.0 mg/kg/injection, schedule: Q01DX011 (ip), vehicle: methylcellulose (MC)) 87 % of control; (dose: 125.0 mg/kg/injection, schedule: Q01DX011 (ip), vehicle: methylcellulose (MC)) 51 % of control.

With `Nc1nc(SCc2ccccc2)c2ncn(C3CCCC3)c2n1`, the T/C by setting is: (dose: 4.6 mg/kg/injection, schedule: Q01DX011 (ip), vehicle: carboxymethylcellulose (CMC)) 79 % of control; (dose: 9.3 mg/kg/injection, schedule: Q01DX011 (ip), vehicle: carboxymethylcellulose (CMC)) 70 % of control; (dose: 18.7 mg/kg/injection, schedule: Q01DX011 (ip), vehicle: carboxymethylcellulose (CMC)) 69 % of control; under setting [2], 24 % of control; (dose: 75.0 mg/kg/injection, schedule: Q01DX011 (ip), vehicle: carboxymethylcellulose (CMC)) 11 % of control; under setting [3], 2 % of control. The T/C is 1 % of control under setting [4] and 33 % of control (dose: 375.0 mg/kg/injection, schedule: Q01DX011 (ip), vehicle: carboxymethylcellulose (CMC)).

For `CCCCSc1nc(N)nc2c1ncn2CC(C)CC` (centres undefined), the T/C was 30 % of control and 47 % of control under setting [2]; 2 % of control and 18 % of control under setting [3]; 2 % of control under setting [4].

As for `CCn1cnc2c(SC)nc(N)nc21`, the T/C was 74 % of control (dose: 6.25 mg/kg/injection, schedule: Q01DX011 (ip), vehicle: methylcellulose (MC)); 30 % of control (dose: 12.5 mg/kg/injection, schedule: Q01DX011 (ip), vehicle: methylcellulose (MC)); 31 % of control (dose: 25.0 mg/kg/injection, schedule: Q01DX011 (ip), vehicle: methylcellulose (MC)); 7 % of control (dose: 50.0 mg/kg/injection, schedule: Q01DX011 (ip), vehicle: methylcellulose (MC)); 1 % of control (dose: 100.0 mg/kg/injection, schedule: Q01DX011 (ip), vehicle: methylcellulose (MC)).

For the molecule `O=C(NC(CO)C(=O)O)C(Cl)Cl` (centres undefined), the T/C (dose: 1000.0 mg/kg/injection, schedule: Q01DX011 (ip), vehicle: methylcellulose (MC)) is 93 % of control.

In the case of `C[C@]12CC[C@H](O)C[C@H]1CC[C@@H]1[C@@H]2CC[C@]2(C)[C@@H](C3=CC(=O)OC3)[C@@H](O)C[C@]12O`, the T/C (dose: 3.0 mg/kg/injection, schedule: Q01DX011 (sc), vehicle: steriod suspending solution) was 91 % of control; the T/C under setting [5] was 80 % of control; the T/C (dose: 50.0 mg/kg/injection, schedule: Q01DX011 (sc), vehicle: steriod suspending solution) was 110 % of control.

As to `Nc1nc(SCC(=O)c2ccc(Cl)cc2)c2ncn(C3OC(CO)C(O)C3O)c2n1` (centres undefined), the T/C by setting is: (dose: 37.5 mg/kg/injection, schedule: Q01DX011 (ip), vehicle: methylcellulose (MC)) 62 % of control; (dose: 75.0 mg/kg/injection, schedule: Q01DX011 (ip), vehicle: methylcellulose (MC)) 44 % of control; (dose: 150.0 mg/kg/injection, schedule: Q01DX011 (ip), vehicle: methylcellulose (MC)) 31 % of control; (dose: 300.0 mg/kg/injection, schedule: Q01DX011 (ip), vehicle: methylcellulose (MC)) 24 % of control.

For `COCC1OC2OC3C(COC)OC(OC4C(COC)OC(OC5C(COC)OC(OC6C(COC)OC(OC7C(COC)OC(OC8C(COC)OC(OC1C(O)C2O)C(O)C8O)C(O)C7O)C(O)C6O)C(O)C5O)C(O)C4O)C(O)C3O` (centres undefined) (tested in a mixture with another compound), the T/C was 87 % of control (dose: 3.12 mg/kg/injection, schedule: Q01DX011 (ip), vehicle: Klucel (hydroxypropylcellulose) (HPC)); 97 % of control (dose: 6.25 mg/kg/injection, schedule: Q01DX011 (ip), vehicle: Klucel (hydroxypropylcellulose) (HPC)); 66 % of control (dose: 12.5 mg/kg/injection, schedule: Q01DX011 (ip), vehicle: Klucel (hydroxypropylcellulose) (HPC)); 95 % of control (dose: 25.0 mg/kg/injection, schedule: Q01DX011 (ip), vehicle: Klucel (hydroxypropylcellulose) (HPC)); 87 % of control (dose: 50.0 mg/kg/injection, schedule: Q01DX011 (ip), vehicle: Klucel (hydroxypropylcellulose) (HPC)); 51 % of control (dose: 100.0 mg/kg/injection, schedule: Q01DX011 (ip), vehicle: Klucel (hydroxypropylcellulose) (HPC)). The T/C (dose: 200.0 mg/kg/injection, schedule: Q01DX011 (ip), vehicle: Klucel (hydroxypropylcellulose) (HPC)) is 104 % of control and the T/C (dose: 400.0 mg/kg/injection, schedule: Q01DX011 (ip), vehicle: Klucel (hydroxypropylcellulose) (HPC)) was 71 % of control.

For the molecule `Nc1cnc(=O)[nH]c1N`, the T/C is 92 % of control under setting [6]; 92 % of control under setting [7]; 122 % of control under setting [8]; 78 % of control (dose: 400.0 mg/kg/injection, schedule: Q01DX011 (ip), vehicle: carboxymethylcellulose (CMC)); 96 % of control (dose: 600.0 mg/kg/injection, schedule: Q01DX011 (ip), vehicle: carboxymethylcellulose (CMC)).

In the case of `C/C(=N\NC(=O)c1ccncc1)c1cccc(Br)c1`, the T/C (dose: 0.9 mg/kg/injection, schedule: Q01DX011 (ip), vehicle: carboxymethylcellulose (CMC)) was 116 % of control; the T/C (dose: 3.7 mg/kg/injection, schedule: Q01DX011 (ip), vehicle: carboxymethylcellulose (CMC)) was 154 % of control; the T/C (dose: 7.5 mg/kg/injection, schedule: Q01DX011 (ip), vehicle: methylcellulose (MC)) was 34 % of control and 57 % of control; the T/C under setting [1] is 65 % of control and 87 % of control.

On to `CCN(CC)Cc1nc2c(c(=O)n(C)c(=O)n2C)n1C`, for which the T/C (dose: 30.0 mg/kg/injection, schedule: Q01DX011 (ip), vehicle: methylcellulose (MC)) is 93 % of control; the T/C (dose: 60.0 mg/kg/injection, schedule: Q01DX011 (ip), vehicle: methylcellulose (MC)) is 54 % of control; the T/C (dose: 120.0 mg/kg/injection, schedule: Q01DX011 (ip), vehicle: methylcellulose (MC)) was 40 % of control.

Take `COC(=O)c1[nH]c(=O)[nH]c(=O)c1F`: the T/C by setting is: (dose: 3.0 mg/kg/injection, schedule: Q01DX011 (ip), vehicle: methylcellulose (MC)) 72 % of control; (dose: 6.0 mg/kg/injection, schedule: Q01DX011 (ip), vehicle: methylcellulose (MC)) 63 % of control; (dose: 12.0 mg/kg/injection, schedule: Q01DX011 (ip), vehicle: methylcellulose (MC)) 91 % of control.

Take `Nc1nc(N)c2cnnn2n1`: the T/C is 83 % of control (dose: 25.0 mg/kg/injection, schedule: Q01DX011 (ip), vehicle: saline) and 116 % of control (dose: 75.0 mg/kg/injection, schedule: Q01DX011 (ip), vehicle: saline).

On to `NS(=O)(=O)c1nc(S(=O)(=O)O)c2[nH]cnc2n1`, for which the T/C is 95 % of control under setting [6], 76 % of control under setting [7] and 86 % of control under setting [8].

In the case of `CCOP(=O)(O)OCC1OC(n2cnc3c(=S)nc[nH]c32)C(O)C1O` (centres undefined), the T/C is 12 % of control (dose: 3.0 mg/kg/injection, schedule: Q01DX011 (ip), vehicle: carboxymethylcellulose (CMC)); 2 % of control (dose: 6.0 mg/kg/injection, schedule: Q01DX011 (ip), vehicle: carboxymethylcellulose (CMC)); 4 % of control (dose: 12.0 mg/kg/injection, schedule: Q01DX011 (ip), vehicle: carboxymethylcellulose (CMC)).

As to `CC12CCC(=O)C=C1CCC1C2C(O)CC2(C)C(O)CCC12` (centres undefined), the T/C is 73 % of control under setting [5]; 97 % of control (dose: 100.0 mg/kg/injection, schedule: Q01DX011 (sc), vehicle: steriod suspending solution); 84 % of control (dose: 300.0 mg/kg/injection, schedule: Q01DX011 (sc), vehicle: steriod suspending solution).
